According to patent US20260199365A1, “BIS-SULFONAMIDE SHIP1 ACTIVATORS” (The Research Foundation for the State University of New York, priority 2022, published 2026):
“Also recorded” adds a separate entry of the source.

Target: T1, recombinant human truncated SHIP1 (tSHIP1) (Homo sapiens, UniProt Q92835)
T1 construct: tSHIP1 (SHIP1, residues 397-864) was amplified from pET24TEV-tSHIP1; His tag; made in house; host or cells: E. coli BL21
T1 sequence (Q92835 397-864): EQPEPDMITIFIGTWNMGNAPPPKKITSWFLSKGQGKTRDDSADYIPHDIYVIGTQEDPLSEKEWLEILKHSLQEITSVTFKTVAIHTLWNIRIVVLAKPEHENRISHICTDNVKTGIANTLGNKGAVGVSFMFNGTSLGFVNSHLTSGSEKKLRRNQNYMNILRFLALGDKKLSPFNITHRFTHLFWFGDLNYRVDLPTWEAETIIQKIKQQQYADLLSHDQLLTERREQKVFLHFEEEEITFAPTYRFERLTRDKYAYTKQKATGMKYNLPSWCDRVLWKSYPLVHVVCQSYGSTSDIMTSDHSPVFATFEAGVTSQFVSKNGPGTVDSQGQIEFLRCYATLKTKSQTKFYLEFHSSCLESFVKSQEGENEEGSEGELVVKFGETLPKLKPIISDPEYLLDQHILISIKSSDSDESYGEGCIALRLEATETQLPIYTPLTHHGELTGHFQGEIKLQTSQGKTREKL
Assay: Malachite Green Phosphatase Release Assay (SHIP1 phosphatase activity)
Format: biochemical
Conditions: for Phosphatase activity in the Malachite Green Assay, analog concentration 125 μM: 125 μM analog; for Phosphatase activity in the Malachite Green Assay, analog concentration 125 μM / Phosphatase activity in the Malachite Green Assay, analog concentration 250 μM / Phosphatase activity in the Malachite Green Assay, analog concentration 500 μM: 100 μM PI(3,4,5)P3-diC8 substrate, normalized to vehicle control (DMSO) = 100%; for Phosphatase activity in the Malachite Green Assay, analog concentration 250 μM: 250 μM analog; for Phosphatase activity in the Malachite Green Assay, analog concentration 500 μM: 500 μM analog, >100% activation, <100% inhibition; for SHIP1 activator activity in the malachite green assay: discussion of Table 4 (125-500 μM)
Description: ^aPhosphatase activity for SHIP1 and SHIP2 enzyme as determined in the malachite green assay. Results were normalized to the phosphatase activity level from vehicle control (DMSO) used as 100% activity. Values >100% are attributed to activation, while values <100% show inhibition of the enzyme compared to the control. The assay was performed at the indicated concentration of the small molecule with 100 μM PI(3,4,5)P3-diC8 as the substrate. ^bnd=not determined, compound 23 was insoluble.
Cloning and expression of tSHIP1 of truncated human SHIP1 protein (tSHIP1) from human whole blood mRNA have been previously described (see Brooks R, Iyer, S., Akada, H., Neelam, S., Russo, C. M., Chisholm, J. D., and Kerr W. G. Coordinate Expansion of Murine Hematopoietic and Mesenchymal Stem Cell Compartments by SHIPi Stem Cells 2015; 33:848). Briefly, tSHIP1 (SHIP1, residues 397-864) was amplified from pET24TEV-tSHIP1. Plasmids were extracted with Midi Prep (Qiagen) and sequences were verified by sequencing of the entire expression regions. The plasmids were then transformed into E. coli BL21 (New England Biolabs). Fresh colonies were amplified in 1 L LB at 37° C., shaking at 250 rpm until OD600 nm reached 0.6. Protein expression was induced with […] IPTG and incubation was continued at 16° C., shaking at 250 rpm for 16 h. Following centrifugation, bacteria pellets were stored overnight at −20° C. Protein was extracted form bacterial cell pellet using BugBuster HT (Millipore), according to manufacturer's recommendations. The His-tagged protein was purified by FPLC using HisTrapHP 5 ml column (Cytiva Life Sciences) at a 5 ml/min flow rate and 10 mM-1M imidazole gradient in Buffer A (20 mM Tris pH 8.0, 300 mM NaCl, 10 mM imidazole, 5 mM β-mercaptoethanol). Fractions containing active protein by Malachite Green Phosphatase Release Assay (Echelon, see below) were pooled, concentrated and buffer exchanged to reduce imidazole concentration by centrifugation using Pierce Protein Concentrators 30KMWCO PES, (ThermoFisher Scientific). Protein was aliquoted and stored at −80° C. in a mixture of Buffer A (without β-ME) and 50% glycerol.
Malachite Green Phosphatase Release Assays: Malachite Green Phosphatase Release Assays (Echelon Biosciences) were performed with recombinant human truncated SHIP1 (tSHIP1) (Brooks, 2015) and SHIP2 (Echelon Biosciences). Briefly, serial dilutions of the compounds dissolved in DMSO were added to the recombinant enzymes diluted in reaction buffer Rx (50 mM Hepes pH 7.4, 150 mM NaCl, 1 mM MgCl2, 0.25 mM EDTA) in triplicate reactions in 96-well plates. Reactions were incubated for 2 min at room temperature. […] of 1 mM Phosphatidylinositol 3,4,5-trisphosphate diC8 (PI(3,4,5)P3diC8) (Echelon Biosciences) was added to each reaction to a final concentration of 100 μM in a final volume of […]. Following 20 min incubation at 37° C., 100 μL of Malachite Green Solution (Echelon Biosciences) was added to each well and plates were incubated at room temperature in the dark for 15 min. Plates were then read at 620 nm on a plate reader (Synergy 2, BioTek).

| Phosphatase activity in the Malachite Green Assay, analog concentration 125 μM [%] | Phosphatase activity in the Malachite Green Assay, analog concentration 250 μM [%] | Phosphatase activity in the Malachite Green Assay, analog concentration 500 μM [%] | SHIP1 activator activity in the malachite green assay | Malachite (SHIP1), 125 μM (bis-sulfonamide hybrids, 125 μM) [%] | Malachite (SHIP1), 250 μM (bis-sulfonamide hybrids, 250 μM) [%] | Malachite (SHIP1), 500 μM (bis-sulfonamide hybrids, 500 μM) [%] | Compound | SHIP1 activator activity in the malachite green assay (listed as 22) |
| --- | --- | --- | --- | --- | --- | --- | --- | --- |
| 100 | 97 | 94 |  |  |  |  | Cc1sc(S(=O)(=O)N(C)C)cc1NC(=O)CNS(=O)(=O)c1ccc(F)cc1 [Compound K388, N-[5-(Dimethylsulfamoyl)-2-methylthiophen-3-yl]-2-(4-fluorobenzenesulfonamido) acetamide] |  |
| 98 | 89 | 80 |  |  |  |  | Cc1sc(S(=O)(=O)N2CC[S+]([O-])CC2)cc1NC(=O)CNS(=O)(=O)c1ccc(F)cc1 [Compound K377] | no activity as a SHIP activator; also recorded: some inhibition of SHIP1 |
| 93 | 102 | 105 | loss of potency |  |  |  | Cc1sc(S(=O)(=O)N2CCSCC2)cc1NC(=O)CNC(=O)OCc1ccccc1 [Compound K373, Benzyl N-({[2-methyl-5-(thiomorpholine-4-sulfonyl)thiophen-3-yl]carbamoyl}methyl) carbamate] |  |
|  | 108 | 116 |  |  |  |  | Cc1sc(S(=O)(=O)N2CCSCC2)cc1NC(=O)[C@@H](C)NS(=O)(=O)c1ccc(F)cc1 [Compound K386, (2R)-2-(4-Fluorobenzenesulfonamido)-N-[2-methyl-5-(thiomorpholine-4-sulfonyl)thiophen-3-yl]propanamide] |  |
| 89 | 118 | 132 |  |  |  |  | Cc1sc(S(=O)(=O)N2CCSCC2)cc1NC(=O)[C@H](C)NS(=O)(=O)c1ccc(F)cc1 [Compound K389, (2S)-2-(4-Fluorobenzenesulfonamido)-N-[2-methyl-5-(thiomorpholine-4-sulfonyl)thiophen-3-yl]propanamide] |  |
| 104 | 106 | 107 | loss of bioactivity |  |  |  | Cc1sc(S(=O)(=O)N2CCSCC2)cc1NC(=O)CNS(=O)(=O)c1ccccc1 [Compound K376, 2-Benzenesulfonamido-N-[2-methyl-5-(thiomorpholine-4-sulfonyl)thiophen-3-yl]acetamide] |  |
| 108 | 115 | 150 | increase in the activity |  |  |  | Cc1sc(S(=O)(=O)N2CCSCC2)cc1NC(=O)CNS(=O)(=O)c1ccc([N+](=O)[O-])cc1 [Compound K375, N-[2-methyl-5-(thiomorpholine-4-sulfonyl)thiophen-3-yl]-2-(4-nitrobenzenesulfonamido) acetamide] |  |
|  |  |  |  | 96 | 103 | 126 | Cc1sc(S(=O)(=O)N2CCCCC2)cc1NC(=O)[C@@H]1CCCN1S(=O)(=O)c1ccc(C(F)(F)F)cc1 [Compound K422] |  |
| 101 | 93 | 109 |  |  |  |  | CCN(CC)S(=O)(=O)c1cc(NC(=O)CNS(=O)(=O)c2ccc(F)cc2)c(C)s1 [Compound K383, N-[5-(Diethylsulfamoyl)-2-methylthiophen-3-yl]-2-(4-fluorobenzenesulfonamido) acetamide] |  |
| 103 | 104 | 107 | reduced effect on SHIP activation |  |  |  | Cc1sc(S(=O)(=O)N2CCSCC2)cc1NC(=O)CN [Compound K378, 2-Aminotrifluoroacetate-N-[2-methyl-5-(thiomorpholine-4-sulfonyl)thiophene-3-yl]acetamide] |  |
|  | 102 | 106 | disappointing |  |  |  | Cc1sc(S(=O)(=O)N2CCSCC2)cc1NC(=O)CNS(=O)(=O)c1cccc([N+](=O)[O-])c1 [Compound K392, N-[2-methyl-5-(thiomorpholine-4-sulfonyl)thiophen-3-yl]-2-(3-nitrobenzenesulfonamido) acetamide] |  |
| 117 | 133 | 163 | quite active |  |  |  | Cc1sc(S(=O)(=O)N2CCSCC2)cc1NC(=O)CNS(=O)(=O)c1ccccc1[N+](=O)[O-] [Compound K391, N-[2-Methyl-5-(thiomorpholine-4-sulfonyl)thiophen-3-yl]-2-(2-nitrobenzenesulfonamido) acetamide] |  |

| Compound | Phosphatase activity in the Malachite Green Assay, analog concentration 125 μM [%] | Phosphatase activity in the Malachite Green Assay, analog concentration 250 μM [%] | Phosphatase activity in the Malachite Green Assay, analog concentration 500 μM [%] | SHIP1 activator activity in the malachite green assay | Malachite (SHIP1), 125 μM (bis-sulfonamide hybrids, 125 μM) [%] | Malachite (SHIP1), 250 μM (bis-sulfonamide hybrids, 250 μM) [%] | Malachite (SHIP1), 500 μM (bis-sulfonamide hybrids, 500 μM) [%] | SHIP1 activator activity in the malachite green assay (listed as 22) |
| --- | --- | --- | --- | --- | --- | --- | --- | --- |
| O=C(CNS(=O)(=O)c1ccc(F)cc1)Nc1cc(S(=O)(=O)N2CCSCC2)sc1Cl [Compound K401, N-[2-Chloro-5-(thiomorpholine-4-sulfonyl)thiophen-3-yl]-2-(4-fluorobenzenesulfonamido) acetamide] | 102 | 109 | 125 | nearly equipotent as the parent K306 structure |  |  |  |  |
